Source: publication PMC9145754, “Novel Soloxolone Amides as Potent Anti-Glioblastoma Candidates: Design, Synthesis, In Silico Analysis and Biological Activities In Vitro and In Vivo” (Pharmaceuticals, 2022)

Tests used:
HuTu-80 cells = experiment: MTT cytotoxicity assay, HuTu-80; type: cell-based; conditions: Homo sapiens, HuTu80, 24 h, read-out: IC50, Duodenum, HuTu-80
Description: In the first step of the study, we analyzed the cytotoxicity of novel soloxolone derivatives 1–12 in a panel of tumor cells, including human cervical carcinoma HeLa, human duodenal carcinoma HuTu-80 and murine melanoma B16 cells, as well as human non-transformed hFF3 foreskin fibroblasts. The cells were treated with derivatives for 24 h and cell viability was evaluated by 3-(4,5-dimethylthiazol-2-yl)-2,5-diphenyltetrazolium bromide (MTT) assay. SM was used as the reference compound.
(§1) The cells in the exponential growth phase were seeded in quadruplicate in 96-well plates at a density of 1 × 10^4 cells/well for HeLa, U87, U118, KELLY and Neuro2a cells; 1.5 × 10^4 cells/well for HuTu-80 cells; 2 × 10^4 cells/well for B16 cells; and 7 × 10^3 cells/well for hFF3 fibroblasts. Cells were incubated under standard conditions overnight followed by their treatment with the investigated compounds (1–20 µM) for 24 h. Then, 10 µL of MTT solution was added to the cells to a final concentration of 0.5 mg/mL and plates were placed under standard conditions for 3 h followed by an aspiration of MTT-containing medium and a dissolution of formazan crystals with 100 µL of DMSO. The absorbance of each well was read at test and reference wavelengths of 570 and 620 nm, respectively, on a Multiscan RC plate reader (Thermo LabSystems, Helsinki, Finland).

U87 cells [1] = experiment: ROS production, DCFDA; type: cell-based, human; conditions: U87, 12 at 4 µM, 24 h
Description: To check the ability of 12 to influence ROS production, U87 cells treated with 12 (4 µM) for 24 h were stained with dichlorodihydrofluorescein diacetate (DCFDA) and analyzed by flow cytometry. […] Since ROS play an important role in the regulation of cell death, we further examined whether ROS production mediated the cytotoxicity of 12 with respect to glioblastoma cells.
Intracellular ROS levels in glioblastoma cells were measured using a DCFDA/H2DCFDA-Cellular ROS Assay Kit (Abcam, Cambridge, UK) according to the manufacturer’s instructions. Briefly, U87 cells were collected by trypsinization and stained with DCFDA at 20 μM for 30 min under standard conditions and seeded in 6-well plates at 2.8 × 10^5 cells/well. Next, the cells were treated with 12 at 4 µM for 24 h, followed by their harvesting and flow cytometry analysis. In total, 10,000 events were recorded for each sample.

U87 cells [2] = experiment: Mitochondrial membrane potential/apoptosis, MitoTracker Red and Annexin V; type: cell-based, human; conditions: U87, 12 at 4 µM, control 5.7%
Description: In order to doublecheck the ΔψM-targeted effect of 12 and to assess the correlation between dissipation of ΔψM and induction of apoptosis in triterpenoid-treated glioblastoma cells, U87 cells were incubated with 12 at 4 µM for 6–24 h followed by their staining with a mix of MitoTracker Red, a fluorescent dye accumulated within mitochondria depending on their ΔψM, and fluorophore-conjugated annexin V, used to visualize apoptotic cells.
[…] cells plated in 6-well plates were treated with 12 at 4 μM for 6, 18 and 24 h and stained using a Mitochondrial Membrane Potential/Annexin V Apoptsis Kit (Molecular Probes, USA) according to the manufacturer’s instructions. Briefly, harvested cells were incubated in Annexin-binding buffer containing MitoTracker Red at 40 nM for 30 min under standard conditions. After that, the cells were washed with PBS, resuspended in Annexin-binding buffer containing 5 µL of Annexin V-Alexa Fluor 488 and incubated at room temperature for 15 min. After the incubation time, the cells were analyzed by flow cytometry. For each sample, 10,000 events were acquired.

U118 cells [3] = experiment: MTT cytotoxicity assay, U118; type: cell-based; conditions: Homo sapiens, 24 h, read-out: IC50, Glioblastoma, U118
Description: (§2) To evaluate the antitumor activity of the synthesized soloxolone amides in brain tumor cells, the cytotoxicity of compounds 4–12, predicted as BBB-permeable (Figure 3), was further analyzed in human glioblastoma U87 and U118 cells, as well as human neuroblastoma KELLY and murine neuroblastoma Neuro2a cells.
as §1

U87 cells [4] = experiment: Vasculogenic mimicry on Matrigel; type: cell-based, human; conditions: 12 at 200 nM, 5 h
Description: Considering that vasculogenic mimicry (VM), a process whereby tumor cells form tumor cell-lined vasculatures to reinforce blood supply to cancerous tissue, plays a crucial role in glioblastoma progression and aggressiveness and that some pentacyclic triterpenoids can inhibit this process, next we studied whether 12 affects VM in glioblastoma cells.
A 96-well plate was placed on ice for pre-cooling and Matrigel®® Matrix (Corning, Corning, NY, USA) was thawed at 4 °C and added to each well of the plate (50 μL/well). Then, the plate was placed at 37 °C in 5% CO2 for 1 h to solidify the Matrigel. U87 cells were seeded at 2 × 10^4 cells/well on the Matrigel-coated wells and treated with 12 at 200 nM for 5 h. At the end of the incubation time, each well was analyzed under a microscope with a phase contrast Primo Vert (ZEISS, Germany). Tubular structures in each field were imaged with a AxioCam ERc5s camera (ZEISS, Germany) and the average number of tubules from three to four random fields in each well was quantified by ImageJ. The experiment was performed in triplicate.

Neuro2a cells = experiment: MTT cytotoxicity assay, Neuro2a; type: cell-based, murine; conditions: Mus musculus, N2a, 24 h, read-out: IC50, Neuroblastoma, Neuro2a
Description: as §2, §1

U118 cells [5] = experiment: Autophagy, MDC staining, U118; type: cell-based, human; conditions: 24 h
Description: (§3) Given that pentacyclic triterpenoids can induce tumor cell death not only by the apoptotic pathway but also by triggering autophagy, we next studied whether 12 stimulated autophagy in glioblastoma cells. For this, U87 and U118 cells were incubated with tryptamide 12 at toxic concentrations (2 or 4 µM) for 24 h followed by cell staining with monodansylcadaverine (MDC), a fluorescent dye specifically labeling autophagosomes. […] Considering that autophagy can be associated not only with cell death but also with cytoprotection, its role in the cytotoxicity of 12 in glioblastoma cells was further studied.
(§4) To evaluate the ability of 12 to induce autophagy, U87 and U118 cells were seeded at 2.8 × 10^5 cells/well in 6-well plates and incubated under standard conditions overnight followed by their treatment with 12 in amounts of 2 and 4 μM for 24 h. Then, the cells were collected and washed with PBS as described above and resuspended in 500 µL of PBS containing monodancylcadaverine (MDC) at 50 μM. After incubation for 15 min under standard conditions, the cells were washed with PBS and analyzed by flow cytometry. For each sample, 10,000 events were acquired.

KELLY cells = experiment: MTT cytotoxicity assay, KELLY; type: cell-based; conditions: Homo sapiens, 24 h, read-out: IC50, Neuroblastoma, KELLY
Description: as §2, §1

U87 cells [6] = experiment: Autophagy, MDC staining, U87; type: cell-based, human; conditions: 24 h
Description: as §3, §4

SMILES: CC1(C)C(=O)C(C#N)=C[C@]2(C)C3=CC(=O)[C@@H]4[C@@H]5C[C@@](C)(C(=O)NCCc6c[nH]c7ccccc67)CC[C@]5(C)CC[C@@]4(C)[C@]3(C)CC[C@@H]12 [compound 12]
- IC50 (HuTu-80 cells): 1500 ± 100 nM
- increase of ROS generation compared to the control (U87 cells [1]): 1.9 fold
- percentage of apoptotic cells with dissipated ΔψM (U87 cells [2]; 6 h): 12.2%
- percentage of apoptotic cells with dissipated ΔψM (U87 cells [2]; 18 h): 18.7%
- percentage of apoptotic cells with dissipated ΔψM (U87 cells [2]; 24 h): 28%
- IC50 (U118 cells [3]): 1900 ± 200 nM
- decrease in numbers of tubular structures compared with untreated cells (U87 cells [4]): 2.2 fold
- IC50 (Neuro2a cells): 1600 ± 100 nM
- MDC-positive cells, U118 (U118 cells [5]; 12 at 2 µM): 8.55%
- MDC-positive cells, U118 (U118 cells [5]; 12 at 4 µM): 8.02%
- IC50 (KELLY cells): 1800 ± 100 nM
- MDC-positive cells, U87 (U87 cells [6]; 12 at 2 µM): 19.57%
- MDC-positive cells, U87 (U87 cells [6]; 12 at 4 µM): 31.95%
